Data published in patent publication US9572807B2, “Protocols for treatment of major depressive disorder (MDD)” (NEURALSTEM, INC., priority 2014, dated 2017).

Columns and labels:
Type in all cases: in vivo, human
[1] = tested on: patients with symptomatic MDD; assay: qEEG pharmacodynamic measurement; details: pre vs 6 hours post-dose on Day 14 and Day 28; prominent in left posterior temporal and parietal regions; lower HFα with placebo
Method: A double-blind, placebo-controlled, multiple-ascending-dose study employing the compound of formula (1) was performed in patients with symptomatic MDD. Twenty-four subjects were recruited, with their diagnosis and illness severity confirmed through an independent, remote SAFER interview (Targum, S. D., et al., CNS Neurosci. Ther. (2008) 14:2-9) from the Massachusetts General Hospital (MGH) Clinical Trials Network and Institute (CTNI) raters. Each patient underwent a screening for eligibility (Day −37 to Day −6 or −3) and eligible patients were admitted into the unit on Day −5 to complete their wash-out and be reconfirmed for eligibility and for baseline assessments. The patients received daily dosing of formula (1) or placebo for 28 days starting on Day 1 and were followed for safety, pharmacokinetics (PK) and pharmacodynamics (PD) until discharge. […]
(§1) In addition to safety, pharmacokinetic and the behavioral ratings scales described in Example 2, qEEG measurements were obtained 6 hours post-dose on Days 14 and 28 for 20 minutes at rest. EEGs were recorded using 19-standard International 10/20 System scalp locations plus electromyography (EMG) and eye movement monitoring. Digital EEGs recorded using Cadwell Laboratories instrumentation, were reviewed to identify the presence of physiological and instrumentation prior to analyses. […]

[2] = tested on: patients with symptomatic MDD; assay: Montgomery-Asberg Depression Rating Scale (MADRS), Phase 1B study; details: for MADRS value: FIG. 2; for Cohen's d value, MADRS (ANCOVA): all test groups (n=18) vs placebo (n=6)
Method: (§2) A double-blind, placebo-controlled, multiple-ascending-dose study employing the compound of formula (1) was performed in patients with symptomatic MDD. Twenty-four subjects were recruited, with their diagnosis and illness severity confirmed through an independent, remote SAFER interview (Targum, S. D., et al., CNS Neurosci. Ther. (2008) 14:2-9) from the Massachusetts General Hospital (MGH) Clinical Trials Network and Institute (CTNI) raters. Each patient underwent a screening for eligibility (Day −37 to Day −6 or −3) and eligible patients were admitted into the unit on Day −5 to complete their wash-out and be reconfirmed for eligibility and for baseline assessments. The patients received daily dosing of formula (1) or placebo for 28 days starting on Day 1 and were followed for safety, pharmacokinetics (PK) and pharmacodynamics (PD) until discharge. At the conclusion of in-house dosing (Day 28), patients remained in the unit for up to 3 additional days, at the psychiatrist's discretion. On Day 35 (±3), Day 42 (±3), Day 49 (±3) and Day 70 (±3) outpatient follow-up visits took place. Patients returned to the unit for extensive follow-up on Day 56 (±3) and Day 84 (±3) (End-of-study).
(§3) The subjects were randomized into four groups of 6 patients each to receive 40 mg of formula (1) per dose administered orally in gelatin capsules once daily, twice daily or three times daily to provide 40 or 80 or 120 mg daily of formula (1) or placebo for 28 days. Each cohort included at least 3 female subjects. In this example, qEEG was used to characterize pharmacodynamic effects.
(§4) In this example, the results of the study of Example 1 were evaluated by the efficacy assessments that included the Montgomery-Asberg Depression Rating Scale (MADRS), the Clinician Global Impression-Improvement (CGI-I), the Symptoms of Depression Questionnaire (SDQ) and the Cognitive and Physical Functioning Questionnaire (CPFQ). […] These improvements persisted over time during the follow-up for MADRS, SDQ and CPFQ.
(§5) Baseline values were adjusted for initial differences and the results for the placebo group (n=6) and the tested groups (n=18) were collapsed. The sizes of the effects were estimated as Cohen's d group mean differences where d=0.20 indicates only a small difference, d=0.50 indicates a medium difference and d=0.80 indicates a large difference. Cohen's d values are described in Cohen, J. (1988) Statistical Power Analysis for the Behavioral Sciences (2nd ed.), Lawrence Erlbaum Associates. D values are used when the scale of a dependent variable is not inherently meaningful, the difference between means are considered in standardized units. That is, effect size is measured in terms of the number of standard deviations by which the means differ. Two commonly used measures are Hedges' g and Cohen's d. Both of these measures consist of the difference between means divided by the standard deviation. They differ only in that Hedges' g uses the version of the standard deviation formula in which division is by N−1, whereas Cohen's d uses the version in which division is by N.
(§6) Covariance is a measure of how much two variables change together and how strong the relationship is between them (Lenth, R. V., The American Statistician (2001) 55:187-193). Analysis of covariance (ANCOVA) is a general linear model which blends analysis of variance (ANOVA) and regression. ANCOVA evaluates whether population means of a dependent variable (DV) are equal across levels of a categorical independent variable (IV), while statistically controlling for the effects of other continuous variables that are not of primary interest, known as covariates (CV). Therefore, when performing ANCOVA, the DV means are adjusted to what they would be if all groups were equal on the CV. In the CGI-I assay, Day 7 was used as the baseline value; in the remaining assays, Day 0 was used as baseline.

[3] = tested on: patients with symptomatic MDD; assay: Cognitive and Physical Functioning Questionnaire (CPFQ), Phase 1B study; details: for Cohen's d value, CPFQ (ANCOVA): all test groups (n=18) vs placebo (n=6)
Method: as §2, §3, §4, §5, §6

[4] = tested on: patients with symptomatic MDD; assay: Safety and tolerability in Phase 1B study
Method: as §2, §3, §1

[5] = Day 14, 1x = 40 mg/day oral (n=6)
[6] = Day 14, 2x = 80 mg/day oral (n=6)
[7] = Day 14, 3x = 120 mg/day oral (n=6)
[8] = Day 14, all three dose groups pooled (n=18)
[9] = Day 28, 1x = 40 mg/day oral (n=6)
[10] = Day 28, 2x = 80 mg/day oral (n=6)
[11] = Day 28, 3x = 120 mg/day oral (n=6)
[12] = Day 28, all three dose groups pooled (n=18)
[13] = Day 56 (follow-up after 28 days dosing), 1x = 40 mg/day oral
[14] = Day 56 (follow-up after 28 days dosing), 2x = 80 mg/day oral
[15] = Day 56 (follow-up after 28 days dosing), 3x = 120 mg/day oral
[16] = Day 56 (follow-up after 28 days dosing), all three dose groups pooled (n=18)
[17] = Day 84 (follow-up after 28 days dosing), 1x = 40 mg/day oral
[18] = Day 84 (follow-up after 28 days dosing), 2x = 80 mg/day oral
[19] = Day 84 (follow-up after 28 days dosing), 3x = 120 mg/day oral
[20] = Day 84 (follow-up after 28 days dosing), all three dose groups pooled
[21] = Day −5 (baseline before dosing), 1x = 40 mg/day group
[22] = Day −5 (baseline before dosing), 2x = 80 mg/day group
[23] = Day −5 (baseline before dosing), 3x = 120 mg/day group
[24] = Day −5 (baseline before dosing), all three dose groups pooled (n=18)

`CC(C)CCNc1ncccc1C(=O)N1CCN(Cc2ccccc2)CC1` [formula (1)] was tested, and the “qEEG high frequency α (HFα), amplitude and coherence measures” value [1] was “increased HFα”, the MADRS value ([2]; 40 mg/day, controls (n=2) 23.5) was 12.5 and the MADRS value ([2]; 80 mg/day, controls (n=2) 18) was 15. For the same compound, the MADRS value ([2]; 120 mg/day, controls (n=2) 18) was 16, the “MADRS Means” value [2, 5] was 20.1667 and the “MADRS Means” value [2, 6] was 18.8333. The “MADRS Means” value [2, 7] was 15.8333, the “MADRS Means” value [2, 8] was 18.2778 and the “MADRS Means” value [2, 9] was 12.6667. The “MADRS Means” value [2, 10] was 15, the “MADRS Means” value [2, 11] was 16.5 and the “MADRS Means” value [2, 12] was 14.7222. The “Cohen's d value, MADRS (ANCOVA)” value ([2]; Day 30) was 0.95, the “MADRS Means” value [2, 13] was 14.3333 and the “MADRS Means” value [2, 14] was 12. The “MADRS Means” value [2, 15] was 11.3333, the “MADRS Means” value [2, 16] was 12.5556 and the “MADRS Means” value [2, 17] was 15. For the same compound, the “MADRS Means” value [2, 18] was 12, the “MADRS Means” value [2, 19] was 10.8 and the “MADRS Means” value [2, 20] was 12.7059. For the same compound, the “Cohen's d value, MADRS (ANCOVA)” value ([2]; Day 85) was 0.84, the “MADRS Means” value [2, 21] was 24.8333 and the “MADRS Means” value [2, 22] was 24.6667. For the same compound, the “MADRS Means” value [2, 23] was 24.3333, the “MADRS Means” value [2, 24] was 24.6111 and the CPFQ value ([3]; 80 mg/day, FIG. 4, controls (n=2) 4.6) was 2.6. The “Cohen's d value, CPFQ (ANCOVA)” value ([3]; 30 days) was 0.94, the “CPFQ Means” value [3, 5] was 3.3095 and the “CPFQ Means” value [3, 6] was 3.2143. The “CPFQ Means” value [3, 7] was 3, the “CPFQ Means” value [3, 8] was 3.1746 and the “CPFQ Means” value [3, 9] was 2.7857. The “CPFQ Means” value [3, 10] was 2.6905, the “CPFQ Means” value [3, 11] was 2.6667 and the “CPFQ Means” value [3, 12] was 2.7143. The “CPFQ Means” value [3, 13] was 2.9048, the “CPFQ Means” value [3, 14] was 2.3571 and the “CPFQ Means” value [3, 15] was 2.5714. The “CPFQ Means” value [3, 16] was 2.6111, the “CPFQ Means” value [3, 17] was 2.8571 and the “CPFQ Means” value [3, 18] was 2.4286. For the same compound, the “CPFQ Means” value [3, 19] was 2.3714, the “CPFQ Means” value [3, 20] was 2.563 and the “Cohen's d value, CPFQ (ANCOVA)” value ([3]; Day 85) was 1.20. For the same compound, the “CPFQ Means” value [3, 21] was 4.0238, the “CPFQ Means” value [3, 22] was 3.4762 and the “CPFQ Means” value [3, 23] was 3.7143. The “CPFQ Means” value [3, 24] was 3.7381, the Serious adverse events ([4]; 40-120 mg/day oral for 28 days) was “No serious adverse events occurred” and the Tolerability ([4]; 40-120 mg/day oral for 28 days) was “well tolerated”. For the same compound, the “Safety EEG recordings by visual inspection” value ([4]; pre vs post dose) was “no new findings”.
